These results are taken from BindingDB's records for doi:10.1021/jm00060a006 (Paris Diderot University, 1993).

SMILES strings stand for the structures.

Assay [1] in a line: Inhibition of PAF-induced rabbit platelet aggregation.
Assay [2] can be described thus: Inhibition of [3H]PAF binding to rabbit platelet membrane.

Broadly, the IC50 is the concentration that gives 50% inhibition. A higher IC50 goes with lower potency. Take `COc1cc(C(=O)N2CCN(C(=O)c3cc(OC)c(OC)c(OC)c3)CC2)cc(OC)c1OC`: the IC50 in assay [1] came to 1780 nM.

For orientation: EC50 means the concentration at which the effect is half-maximal. Read a low EC50 as higher potency in that assay. Turning to `C[C@@H]1C(=O)O[C@H]2[C@H](O)[C@@]34[C@H]5C[C@@H](C(C)(C)C)[C@]36[C@@H](OC(=O)[C@@H]6O)O[C@@]4(C(=O)O5)[C@@]12O`, it took 740 nM to reach half-maximal inhibition in assay [1] (IC50). The compound also displayed an EC50 in assay [2] of 180 nM. In assay [1], `COc1cc(N2CCN(c3cc(OC)c(OC)c(OC)c3)CC2)cc(OC)c1OC` [1,4-Bis-(3,4,5-trimethoxy-phenyl)-piperazine] registered an IC50 of 12500 nM. For the compound `COc1cc(C(=O)N2CCN(C(=O)c3cc(OC)c(OC)c(OC)c3)C(COC(=O)C(C)(C)C)C2)cc(OC)c1OC` (stereo unspecified) [2,2-Dimethyl-propionic acid 1,4-bis-(3,4,5-trimethoxy-benzoyl)-piperazin-2-ylmethyl ester], it took 100 nM to reach half-maximal inhibition in assay [1] (IC50). For the same compound, the EC50 in assay [2] came to 300 nM. Turning to `COc1cc(C(=O)N2CCN(C(=O)c3cc(OC)c(OC)c(OC)c3)C(COC(=O)c3ccccc3Cl)C2)cc(OC)c1OC` (stereo unspecified) [2-Chloro-benzoic acid 1,4-bis-(3,4,5-trimethoxy-benzoyl)-piperazin-2-ylmethyl ester], the IC50 in assay [1] was 170 nM. Besides, it took 450 nM to reach a half-maximal effect in assay [2] (EC50). Compound `CCC(CC)C(=O)OCC1CN(Cc2cc(OC)c(OC)c(OC)c2)CCN1Cc1cc(OC)c(OC)c(OC)c1` (stereo unspecified) [2-Ethyl-butyric acid 1,4-bis-(3,4,5-trimethoxy-benzyl)-piperazin-2-ylmethyl ester] came in with an IC50 in assay [1] of 2700 nM. On to `COc1cc(C(=O)N2CCN(C(=O)c3cc(OC)c(OC)c(OC)c3)C(COC(=O)CC(C)(C)C)C2)cc(OC)c1OC` (stereo unspecified) [3,3-Dimethyl-butyric acid 1,4-bis-(3,4,5-trimethoxy-benzoyl)-piperazin-2-ylmethyl ester], for which the IC50 in assay [1] was determined as 120 nM. This IC50 is about 22-fold lower than that of the compound before. The compound `CCC(C)(C)NC(=O)OCC1CN(C(=O)c2cc(OC)c(OC)c(OC)c2)CCN1C(=O)c1cc(OC)c(OC)c(OC)c1` (stereo unspecified) [(1,1-Dimethyl-propyl)-carbamic acid 1,4-bis-(3,4,5-trimethoxy-benzoyl)-piperazin-2-ylmethyl ester] came in with an IC50 in assay [1] of 320 nM. Compared with the last compound, the IC50 is about 2.7-fold higher. The same measure, in the same setting: for `COc1cc(C(=O)N2CCN(C(=O)c3cc(OC)c(OC)c(OC)c3)C(COC(=O)NC(C)C(C)(C)C)C2)cc(OC)c1OC` (stereo unspecified) [(1,2,2-Trimethyl-propyl)-carbamic acid 1,4-bis-(3,4,5-trimethoxy-benzoyl)-piperazin-2-ylmethyl ester] the value was 170 nM. For `COc1cc(C(=O)N2CCN(C(=O)c3cc(OC)c(OC)c(OC)c3)C(COC(=O)NC(C)C(C)C)C2)cc(OC)c1OC` (stereo unspecified) [(1,2-Dimethyl-propyl)-carbamic acid 1,4-bis-(3,4,5-trimethoxy-benzoyl)-piperazin-2-ylmethyl ester], 80 nM corresponded to half-maximal inhibition in assay [1] (IC50). The EC50 in assay [2] was 70 nM. In the same order, the values of `COc1cc(C(=O)N2CCN(C(=O)c3cc(OC)c(OC)c(OC)c3)C(COC(=O)NC(C)CC(C)C)C2)cc(OC)c1OC` (stereo unspecified) [(1,3-Dimethyl-butyl)-carbamic acid 1,4-bis-(3,4,5-trimethoxy-benzoyl)-piperazin-2-ylmethyl ester] are 280 nM and 180 nM. With `CCCN(CCC)C(=O)OCC1CN(C(=O)c2cc(OC)c(OC)c(OC)c2)CCN1C(=O)c1cc(OC)c(OC)c(OC)c1` (stereo unspecified) [(1,4-bis(3,4,5-trimethoxybenzoyl)piperazin-2-yl)methyl dipropylcarbamate], the midpoint of inhibition in assay [1], the IC50, lay at 380 nM. The same compound yielded a 50% effective concentration (EC50) in assay [2] of 680 nM. In assay [1], `CCC(CC)NC(=O)OCC1CN(C(=O)c2cc(OC)c(OC)c(OC)c2)CCN1C(=O)c1cc(OC)c(OC)c(OC)c1` (stereo unspecified) [(1-Ethyl-propyl)-carbamic acid 1,4-bis-(3,4,5-trimethoxy-benzoyl)-piperazin-2-ylmethyl ester] returned a half-maximal inhibitory concentration (IC50) of 130 nM. This lies in the sub-micromolar range.

On to `CCCC(C)NC(=O)OCC1CN(C(=O)c2cc(OC)c(OC)c(OC)c2)CCN1C(=O)c1cc(OC)c(OC)c(OC)c1` (stereo unspecified) [(1-Methyl-butyl)-carbamic acid 1,4-bis-(3,4,5-trimethoxy-benzoyl)-piperazin-2-ylmethyl ester], for which, in assay [1], half-maximal inhibition (IC50) required 100 nM. In the case of `CCCCC(CC)CNC(=O)OCC1CN(C(=O)c2cc(OC)c(OC)c(OC)c2)CCN1C(=O)c1cc(OC)c(OC)c(OC)c1` (stereo unspecified) [(2-Ethyl-hexyl)-carbamic acid 1,4-bis-(3,4,5-trimethoxy-benzoyl)-piperazin-2-ylmethyl ester], the midpoint of inhibition in assay [1], the IC50, lay at 3900 nM. In turn, `CCC(C)CNC(=O)OCC1CN(C(=O)c2cc(OC)c(OC)c(OC)c2)CCN1C(=O)c1cc(OC)c(OC)c(OC)c1` (stereo unspecified) [(2-Methyl-butyl)-carbamic acid 1,4-bis-(3,4,5-trimethoxy-benzoyl)-piperazin-2-ylmethyl ester] yielded an IC50 in assay [1] of 470 nM. This IC50 is about 8.3-fold lower than that of the compound before. Still for that read-out and setting: for `COc1cc(NC(=O)OCC2CN(C(=O)c3cc(OC)c(OC)c(OC)c3)CCN2C(=O)c2cc(OC)c(OC)c(OC)c2)cc(OC)c1OC` (stereo unspecified) [(3,4,5-Trimethoxy-phenyl)-carbamic acid 1,4-bis-(3,4,5-trimethoxy-benzoyl)-piperazin-2-ylmethyl ester] the value was 13800 nM; for `COc1cc(C(=O)N2CCN(C(=O)c3cc(OC)c(OC)c(OC)c3)C(COC(=O)NCCC(C)C)C2)cc(OC)c1OC` (stereo unspecified) [(3-Methyl-butyl)-carbamic acid 1,4-bis-(3,4,5-trimethoxy-benzoyl)-piperazin-2-ylmethyl ester], 140 nM; for `COc1cc(C(=O)N2CCN(C(=O)c3cc(OC)c(OC)c(OC)c3)C(COC(=O)COc3ccc(Cl)cc3)C2)cc(OC)c1OC` (stereo unspecified) [(4-Chloro-phenoxy)-acetic acid 1,4-bis-(3,4,5-trimethoxy-benzoyl)-piperazin-2-ylmethyl ester], 5000 nM. On the same count and under the same terms, for `COc1cc(C(=O)N2CCN(C(=O)c3cc(OC)c(OC)c(OC)c3)C(COC(=O)COc3ccc(F)cc3)C2)cc(OC)c1OC` (stereo unspecified) [(4-Fluoro-phenoxy)-acetic acid 1,4-bis-(3,4,5-trimethoxy-benzoyl)-piperazin-2-ylmethyl ester] the value was 10300 nM. In assay [1], `COc1cc(C(=O)N2CCN(C(=O)c3cc(OC)c(OC)c(OC)c3)C(COC(C)=O)C2)cc(OC)c1OC` (stereo unspecified) [Acetic acid 1,4-bis-(3,4,5-trimethoxy-benzoyl)-piperazin-2-ylmethyl ester] registered an IC50 of 430 nM. This compound also gave a concentration for a half-maximal effect (EC50) in assay [2] of 400 nM.

As for `CCCCNC(=O)OCC1CN(C(=O)c2cc(OC)c(OC)c(OC)c2)CCN1C(=O)c1cc(OC)c(OC)c(OC)c1` (stereo unspecified) [Butyl-carbamic acid 1,4-bis-(3,4,5-trimethoxy-benzoyl)-piperazin-2-ylmethyl ester], in assay [1], inhibition was half-maximal at 240 nM (IC50). In assay [2], this compound showed an EC50 of 700 nM. In assay [1], `CCCC(=O)OCC1CN(C(=O)c2cc(OC)c(OC)c(OC)c2)CCN1C(=O)c1cc(OC)c(OC)c(OC)c1` (stereo unspecified) [Butyric acid 1,4-bis-(3,4,5-trimethoxy-benzoyl)-piperazin-2-ylmethyl ester] came in with an IC50 of 420 nM. Still for that read-out and setting: for `COc1cc(C(=O)N2CCN(C(=O)c3cc(OC)c(OC)c(OC)c3)C(COC(=O)C3CCCCC3)C2)cc(OC)c1OC` (stereo unspecified) [Cyclohexanecarboxylic acid 1,4-bis-(3,4,5-trimethoxy-benzoyl)-piperazin-2-ylmethyl ester] the value was 290 nM; for `CCCCCCCCCC(=O)OCC1CN(C(=O)c2cc(OC)c(OC)c(OC)c2)CCN1C(=O)c1cc(OC)c(OC)c(OC)c1` (stereo unspecified) [Decanoic acid 1,4-bis-(3,4,5-trimethoxy-benzoyl)-piperazin-2-ylmethyl ester], 2820 nM; for `CCCCN(CCCC)C(=O)OCC1CN(C(=O)c2cc(OC)c(OC)c(OC)c2)CCN1C(=O)c1cc(OC)c(OC)c(OC)c1` (stereo unspecified) [Dibutyl-carbamic acid 1,4-bis-(3,4,5-trimethoxy-benzoyl)-piperazin-2-ylmethyl ester], 1250 nM. Still for that read-out and setting: for `CCN(CC)C(=O)OCC1CN(C(=O)c2cc(OC)c(OC)c(OC)c2)CCN1C(=O)c1cc(OC)c(OC)c(OC)c1` (stereo unspecified) [Diethyl-carbamic acid 1,4-bis-(3,4,5-trimethoxy-benzoyl)-piperazin-2-ylmethyl ester] the value was 25800 nM; for `CCCCCN(CCCCC)C(=O)OCC1CN(C(=O)c2cc(OC)c(OC)c(OC)c2)CCN1C(=O)c1cc(OC)c(OC)c(OC)c1` (stereo unspecified) [Dipentyl-carbamic acid 1,4-bis-(3,4,5-trimethoxy-benzoyl)-piperazin-2-ylmethyl ester], 11400 nM; for `CCCCCC(=O)OCC1CN(C(=O)c2cc(OC)c(OC)c(OC)c2)CCN1C(=O)c1cc(OC)c(OC)c(OC)c1` (stereo unspecified) [Hexanoic acid 1,4-bis-(3,4,5-trimethoxy-benzoyl)-piperazin-2-ylmethyl ester], 290 nM. Same read-out and setting: for `CCCCCCCCCCCCCCCCCC(=O)OCC1CN(C(=O)c2cc(OC)c(OC)c(OC)c2)CCN1C(=O)c1cc(OC)c(OC)c(OC)c1` (stereo unspecified) [Octadecanoic acid 1,4-bis-(3,4,5-trimethoxy-benzoyl)-piperazin-2-ylmethyl ester] the value was 45000 nM. As to `CCCCCCCC(=O)OCC1CN(C(=O)c2cc(OC)c(OC)c(OC)c2)CCN1C(=O)c1cc(OC)c(OC)c(OC)c1` (stereo unspecified) [Octanoic acid 1,4-bis-(3,4,5-trimethoxy-benzoyl)-piperazin-2-ylmethyl ester], the concentration for half-maximal inhibition (IC50) in assay [1] stood at 310 nM. The same measure, in the same setting: for `CCCCCCCCNC(=O)OCC1CN(C(=O)c2cc(OC)c(OC)c(OC)c2)CCN1C(=O)c1cc(OC)c(OC)c(OC)c1` (stereo unspecified) [Octyl-carbamic acid 1,4-bis-(3,4,5-trimethoxy-benzoyl)-piperazin-2-ylmethyl ester] the value was 370 nM; for `COc1cc(C(=O)N2CCN(C(=O)c3cc(OC)c(OC)c(OC)c3)C(COC(=O)NC(C)(C)C)C2)cc(OC)c1OC` (stereo unspecified) [tert-Butyl-carbamic acid 1,4-bis-(3,4,5-trimethoxy-benzoyl)-piperazin-2-ylmethyl ester], 130 nM.
